Among the data in patent publication EP3772943B1, “FORMULATION OF INSECTICIDAL MIXTURES WITH PROPYLENE CARBONATE” (Bayer Aktiengesellschaft, priority 2018, dated 2019) are Kutikelpenetration values, retold here.

The test system of this series is enzymatisch isolierte Kutikeln von Apfelbaumblättern. In words: Cuticle penetration test in diffusion cells with HPLC read-out (Beispiel V). It counts as in vitro ADME, Apfelbäumen. To be noted: active substances without additives and in presence of propylene carbonate (Tabelle V, Eintrag 1,2). An excerpt:
In diesem Test wird die Penetration von Wirkstoffen durch enzymatisch isolierte Kutikeln von Apfelbaumblättern gemessen.
Verwendet werden Blätter, die in voll entwickeltem Zustand von Apfelbäumen abgeschnitten werden und nach der Methode beschrieben bei Schönherr und Riederer isoliert (Schönherr, J., Riederer, M. (1986)). Es werden nur die von Spaltöffnungen und Haaren freien Kutikeln der Blattoberseiten weiter verwendet. Die so gewonnenen Kutikularmembranen werden für Membran-Transport-Untersuchungen in Diffusionszellen (=Transportkammern) aus Edelstahl eingelegt. Dazu werden die Kutikeln mit einer Pinzette mittig auf die mit Silikonfett bestrichenen Ränder der Diffusionszellen plaziert und mit einem ebenfalls gefetteten Ring verschlossen. Die Anordnung ist so gewählt, dass die morphologische Außenseite der Kutikeln nach außen, also zur Luft, gerichtet ist, während die ursprüngliche Innenseite dem Inneren der Diffusionszelle zugewandt ist. Die Diffusionszellen sind mit Wasser bzw. mit einem Gemisch aus Wasser und Lösungsmittel gefüllt und auf des physiologisch relevante pH von 5.5 gepuffert. Das Medium der Diffusionszellen soll das Apoplast, also das natürliche Aufnahmemdium im inneren des Blattes nachstellen. […]

As to `O=C1C=C(N(Cc2ccc(Cl)nc2)CC(F)F)CO1` [Flupyradifurone], the Kutikelpenetration result is recorded as “keine oder kaum Kutikelpenetration”.
